According to ChEMBL document CHEMBL1201862, “PubChem BioAssay data set” (2004):
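Briefly, cells in 96-well plates were exposed to five compound concentrations for 48 h, and endpoints were estimated by linear interpolation. The concentration for 50% growth inhibition is given as GI50.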 The source made the active and inactive calls. No stated cut-off is given here; in the data, active = GI50 up to about 1.1 µM and inactive = higher.

How the values were obtained:
Assay in all cases: NCI anticancer screen, dose series, 48 h
786-0 = tested on: 786-0
COLO 205 = tested on: COLO 205
DU-145 = tested on: DU-145
HCT-116 = tested on: HCT-116
HOP-92 = tested on: HOP-92
HT-29 = tested on: HT-29
Hs-578T = tested on: Hs-578T
MDA-MB-435 = tested on: MDA-MB-435
NCI-H23 = tested on: NCI-H23
NCI/ADR-RES = tested on: NCI/ADR-RES
OVCAR-4 = tested on: OVCAR-4
RXF 393 = tested on: RXF 393
SK-MEL-2 = tested on: SK-MEL-2
SNB-75 = tested on: SNB-75
U-251 = tested on: U-251
UACC-257 = tested on: UACC-257
CAKI-1 = tested on: CAKI-1
Malme-3M = tested on: Malme-3M

Measured: GI50

COC(=O)C(Cc1ccc2c(c1)CCC2)Cc1ccc2c(c1)CCC2
inactive: 786-0 78.2 µM | COLO 205 92.7 µM | DU-145 > 100 µM | HCT-116 66.2 µM | HOP-92 31.3 µM | HT-29 29.4 µM | Hs-578T > 100 µM | MDA-MB-435 48.8 µM | NCI-H23 29.6 µM | NCI/ADR-RES > 100 µM | OVCAR-4 > 100 µM | RXF 393 31 µM | SK-MEL-2 18.4 µM | SNB-75 71.3 µM | U-251 51.9 µM | UACC-257 37 µM

C=C(C)C1CCC2(C)C1CCC1(C)C2CCC2C3(C)C4OC(OC4=O)C(C)(C)C3CCC21C (centres undefined)
inactive: 786-0 > 100 µM | CAKI-1 92 µM | COLO 205 48.3 µM | DU-145 > 100 µM | HCT-116 > 100 µM | HOP-92 > 100 µM | HT-29 > 100 µM | Hs-578T > 100 µM | MDA-MB-435 > 100 µM | NCI-H23 > 100 µM | NCI/ADR-RES > 100 µM | RXF 393 > 100 µM | SK-MEL-2 > 100 µM | SNB-75 > 100 µM | U-251 > 100 µM | UACC-257 > 100 µM

C[C@@H](c1ccccc1)N1CN(C(=O)OCc2ccccc2)C(CO)C1=O (some centres undefined)
inactive: 786-0 > 100 µM | CAKI-1 > 100 µM | COLO 205 > 100 µM | DU-145 > 100 µM | HCT-116 > 100 µM | HT-29 70.3 µM | Hs-578T > 100 µM | MDA-MB-435 > 100 µM | Malme-3M > 100 µM | NCI-H23 > 100 µM | NCI/ADR-RES > 100 µM | OVCAR-4 > 100 µM | RXF 393 61.1 µM | SK-MEL-2 > 100 µM | SNB-75 > 100 µM | U-251 > 100 µM | UACC-257 95.7 µM

CC1=CC(=O)N(n2c(-c3ccccc3)n[nH]c2=O)C1=O
inactive: 786-0 > 100 µM | CAKI-1 > 100 µM | COLO 205 > 100 µM | DU-145 > 100 µM | HCT-116 > 100 µM | HT-29 > 100 µM | Hs-578T > 100 µM | MDA-MB-435 > 100 µM | Malme-3M > 100 µM | NCI-H23 > 100 µM | NCI/ADR-RES > 100 µM | OVCAR-4 > 100 µM | RXF 393 > 100 µM | SK-MEL-2 > 100 µM | SNB-75 > 100 µM | U-251 > 100 µM | UACC-257 > 100 µM

CC(C)=CCC/C(C)=C\CC/C(C)=C/CO
inactive: 786-0 17.4 µM | CAKI-1 > 10 µM | COLO 205 40.1 µM | DU-145 27.1 µM | HCT-116 19.8 µM | HOP-92 10.5 µM | HT-29 19.7 µM | Hs-578T 28.8 µM | MDA-MB-435 19.6 µM | Malme-3M 18.2 µM | NCI-H23 23.8 µM | NCI/ADR-RES 13.7 µM | OVCAR-4 26.2 µM | SK-MEL-2 16.4 µM | SNB-75 31.9 µM | U-251 17.6 µM | UACC-257 36.1 µM

CN(C)CCCNC(=O)CNC(=O)c1cc(NC(=O)c2cc(NC(=O)c3cc(NC(=O)CCNC(=O)c4cc(NC(=O)c5cc(NC(=O)c6nccn6C)cn5C)cn4C)cn3C)cn2C)cn1C
inactive: 786-0 > 100 µM | CAKI-1 > 100 µM | COLO 205 > 100 µM | DU-145 > 100 µM | HCT-116 > 100 µM | HOP-92 > 100 µM | HT-29 > 100 µM | Hs-578T > 100 µM | MDA-MB-435 > 100 µM | Malme-3M > 100 µM | NCI-H23 > 100 µM | NCI/ADR-RES > 100 µM | OVCAR-4 > 100 µM | SK-MEL-2 > 100 µM | SNB-75 41.3 µM | U-251 > 100 µM | UACC-257 > 100 µM

CCCC[C@H]1CCN2C[C@@H](O)[C@@H](O)[C@H]2[C@@H]1O
inactive: 786-0 > 100 µM | CAKI-1 > 100 µM | COLO 205 > 100 µM | DU-145 > 100 µM | HCT-116 > 100 µM | HOP-92 > 100 µM | HT-29 > 100 µM | Hs-578T > 100 µM | MDA-MB-435 > 100 µM | Malme-3M > 100 µM | NCI-H23 > 100 µM | NCI/ADR-RES > 100 µM | OVCAR-4 > 100 µM | SK-MEL-2 > 100 µM | SNB-75 > 100 µM | U-251 > 100 µM | UACC-257 > 100 µM

N=C/N=C/C(=S)O[C@@H]1C(=O)N2CCC[C@@]23CCCC[C@@H]13
inactive: 786-0 > 12.5 µM | CAKI-1 > 12.5 µM | COLO 205 > 12.5 µM | DU-145 > 12.5 µM | HCT-116 > 12.5 µM | HT-29 > 12.5 µM | Hs-578T > 12.5 µM | MDA-MB-435 > 12.5 µM | Malme-3M > 12.5 µM | NCI-H23 > 12.5 µM | NCI/ADR-RES > 12.5 µM | OVCAR-4 > 12.5 µM | RXF 393 > 12.5 µM | SK-MEL-2 > 12.5 µM | SNB-75 > 12.5 µM | U-251 > 12.5 µM | UACC-257 > 12.5 µM
